According to patent US9480750B2, “Preparation of antibody or an antibody fragment targeted immunoliposomes for systemic administration of therapeutic or diagnostic agents and uses thereof” (GEORGETOWN UNIVERSITY, priority 1999, dated 2016):
Counter-ions that a name gives are not always drawn. Like-named read-outs stand apart in the source and are kept apart here.

Legend:
[1] = test system: MDA-MB-435 human melanoma cells; experiment: In vitro chemosensitization, XTT; format: cell-based
[2] = test system: cleaved caspase-3; experiment: Western blot of cleaved caspase-3 from mice serum; format: in vivo, C57BL/6 mice; conditions: CDDP alone
Experimental: The blood collected from the retroorbital sinus of mice was centrifuged at 1,000 rpm for 10 minutes at room temperature after coagulation at room temperature for 1 hr. The serum was transferred to a new tube and centrifuged again at 10,000 g for 20 minutes. The supernatant serum was purified using a P-30 Micro-Bio-Spin Chromatography Column (BIORAD, Hercules, Calif.). Fifteen microliters of the fractions was loaded on a 4% to 12% gradient NuPAGE gel (Invitrogen Life Technologies, Carlsbad, Calif.) and run until the 10 kDa protein marker has run off the gel (approximately 1.5 to 2 hours). After electrophoresis, the proteins were transferred onto a Protran BA 85 nitrocellulose transfer membrane (Schleicher and Schuell, BioScience, Keene, N. H.). Finally, a Western blot analysis for cleaved caspase-3 was performed with cleaved caspase-3 (17 kD) antibody. To block nonspecific binding, the membrane was incubated at room temperature for 1 hour with 5% nonfat dry milk in 10 mM Tris-HCl buffer, pH 8.0, containing 150 mM NaCl and 0.05% Tween 20 (TBST). […] The protein was detected using goat antirabbit secondary antibody (Jackson ImmunoResearch Laboratories, West Grove, Pa.), ECL Western blotting detection reagent, and Hyperfilm ECL (Amersham, Piscataway, N.J.).

[3] = administered orally; cited from earlier work
[4] = test system: advanced NSCLC; conditions: previously-treated advanced NSCLC; cited from earlier work
[5] = test system: DU145 human prostate cancer cells; experiment: In vitro chemosensitization, XTT; format: cell-based
[6] = test system: normal human lung fibroblasts IMR-90; experiment: In vitro chemosensitization of normal cells, XTT; format: cell-based; conditions: 2.5 uM Sunitinib malate, FIG. 43A-C
Experimental: The above sensitization results with B16/F10 and MDA-MB-435 were dramatically different from the results with normal human lung fibroblasts IMR-90 under the same conditions. […] The ratio of single-chain antibody fragment to liposome in each complex was 1:30 (w:w). […] After 48 hours, XTT assays were performed to assess cell viability in response to treatments. Each point represents the mean of triplicate samples±standard deviation. […] UT=untransfected.

[7] = test system: normal skin fibroblast cell line H500
[8] = test system: Panc I subcutaneous xenograft tumors; experiment: In vivo chemosensitization of pancreatic xenograft; parameters: species or system mice; conditions: GEMZAR alone, intraperitoneally
Experimental: To show the universality of this delivery system two different human xenograft mouse tumor models (pancreatic cancer and breast cancer) were employed. In the first (FIG. 10A) Panc I subcutaneous xenograft tumors were induced in female athymic nude (NCR nu/nu) mice. When the tumors were 100-200 mm^3 in size the animals were injected with the chemotherapeutic agent GEMZAR® (intraperitoneally) and with […]-2 prepared by the method of this invention (I.V.). […] In addition to the I.V. injections the complex described above also was intratumorally injected. One group of animals received GEMZAR® only and a second control group received GEMZAR® plus the complex carrying empty vector.

[9] = TARCEVA plus gemcitabine; cited from earlier work
[10] = cited from earlier work

SMILES: Cc1ccc(NC(=O)c2ccc(CN3CCN(C)CC3)cc2)cc1Nc1nccc(-c2cccnc2)n1 [Imatinib Mesylate]
- sensitization to TAXOTERE ([1]; 20 uM Imatinib Mesylate): does not sensitize the cells

SMILES: [NH2][Pt]([NH2])([Cl])[Cl] [CDDP, cisplatin]
- cleaved caspase-3 in serum [2]: only a weak band

SMILES: COc1cc2ncnc(Nc3ccc(F)c(Cl)c3)c2cc1OCCCN1CCOCC1 [Geftinib, Gefitinib]
- sensitization to TAXOTERE ([1]; free Geftinib, 15 µM): did not sensitize the cells at all
- half-lives [3]: ~46 h
- patients achieving tumor shrinkage or stabilization of their tumor [4]: Approximately 50%

SMILES: CCN(CC)CCNC(=O)c1c(C)[nH]c(/C=C2\C(=O)Nc3ccc(F)cc32)c1C [Sunitinib malate]
- sensitization to Mitoxantrone ([5]; 5 μM free Sunitinib malate): only minimal effect on sensitization
- sensitization to Mitoxantrone, TAXOTERE or Gemcitabine [6]: no significant increase in sensitization
- sensitization to Mitoxantrone, TAXOTERE or Gemcitabine ([7]; 2.5 or 5 uM Sunitinib malate, FIG. 42A-C): no significant increase in sensitization

SMILES: Nc1ccn([C@@H]2O[C@H](CO)[C@@H](O)C2(F)F)c(=O)n1 [GEMZAR®, gemcitabine HCl]
- tumor growth [8]: not able to significantly inhibit pancreatic tumor growth

SMILES: C#Cc1cccc(Nc2ncnc3cc(OCCOC)c(OCCOC)cc23)c1 [Erlotinib, N-(3-ethynylphenyl)-6,7-bis(2-methoxyethoxy)-4-quinazolinamine]
- Diarrhea [9]: 48%
- Rash [9]: 69%
- dose reductions due to rash and diarrhea, each [9]: two percent
- study discontinuation due to rash and diarrhea [9]: up to one percent
- sensitization to TAXOTERE ([1]; free Erlotinib): only minimal effect
- sensitization to Mitoxantrone ([5]; 3.75 uM Erlotinib): does not sensitize the cells to Mitoxantrone
- sensitization to Mitoxantrone ([5]; 7.5 uM Erlotinib): had no effect on the response to the chemotherapeutic agent
- half-lives [3]: ~36 h
- incidence of ILD-like events ([10]; NSCLC single-agent trial): 0.8%
- Grade 3/4 diarrhea ([10]; monotherapy 150 mg, NSCLC): 6%
- Grade 3/4 rash ([10]; monotherapy 150 mg, NSCLC): 9%
- patients discontinuing due to rash or diarrhea, each ([10]; monotherapy 150 mg, NSCLC): 1%
- sensitization to Mitoxantrone, TAXOTERE or Gemcitabine ([7]; 7.5 uM Erlotinib, FIG. 36A-C): no significant increase in sensitization
